Reference: patent US12590130B2, “Bipartite molecules and uses thereof in treating diseases associated with abnormal protein aggregates” (ACADEMIA SINICA, priority 2014, dated 2026)

Key:
APP×PS1 transgenic mice [1] = assay: Morris water maze in APP×PS1 transgenic mice; assay type: in vivo, mouse; details: vs PEI
From the text: FIG. 12. R8-Aβ(25-35)-PEI improved memory as measured by the Morris water maze assay. Panel A: Plot of the escape latency period of wild type (WT) and APP×PS1 transgenic (Tg) mice of 8 months of age treated with either PEI or R8-Aβ(25-35) peptide from the age of 4 months to 8 months. […] Panel B: Percentage of time of WT or Tg mice treated as indicated spent in swimming in the target quadrant where the hidden platform used to be. The times of the indicated mice crossing the target quadrant. […] Panel C: The percentage of time of the WT or Tg mice as indicated crossing the target quadrant. Ten mice per group were used in this study. The statistics were performed with two way ANOVA with Fisher's LSD posthoc analysis. N=10/group *<0.05; ***<0.0005; ****<0.0001
(§1) APP×PS1 transgenic mice (B6C3-Tg (APPswe,PSEN1dE9) 85Dbo/Mmjax, purchased from Jackson Laboratories (USA), were bred and genotyped following the vendor's protocols. Borchelt et al., Neuron (1996) 17:1005-13; and Jankowsky et al., Biomol Eng (2001) 17:157-65. The mice had access to food and water ad libitum and were kept on a 12:12 h light-dark cycle. PEI and R8A β 25-35-PEI were dissolved in 100 mM NaH2PO4/138 mM KCl (pH 5) to a final concentration of 400 μM. For intranasal administration, 2.5 μL PEI or R8-A β (25-35)-PEI was given to each nostril of one mouse when they were […] for six days/week until they were 8 months of age. Mice were then tested with a Morris water maze. Treatment were resumed after a 6-week break for the water maze test, and continued until the mice were 12 months of age.
The maze was made of white opaque plastic with a diameter of 120 cm and contained 40 cm high walls. It was filled with milk/water at 25° C. […] The path length and escape latencies were recorded (n=10 per group). Acquisition data, such as time taken to reach the escape platform and path length were analyzed by two-way repeated measures ANOVA. […] The platform was removed from the maze and animals were allowed to swim freely for 90 s and the swimming path was recorded and analyzed.

APP×PS1 transgenic mice [2] = assay: Thioflavin S staining of amyloid plaques in APP×PS1 mice; assay type: in vivo, mouse; details: vs PEI
APP×PS1 transgenic mice [3] = assay: Cytometric bead array for IL-6 and IL-1β in brain of APP×PS1 mice; assay type: in vivo, mouse; details: cortex, 8 month-old Tg mice
Description: as §1
A cytometric bead array (CBA, mouse inflammation kit; BD Biosciences) was used to quantitatively measure cytokine expression levels in the control and treated mouse brain tissue lysates. […] This method quantifies soluble particles, in this case, cytokines, using a fluorescence-based detection mechanism. The beads, coated with the desired cytokine, IL-6 and IL-1B, reacted with the test lysates and standards, to which fluorescence dyes were then added. The assay was performed according to the manufacturer's instructions and analyzed on the FACS Calibur (Becton Dickinson). […]

[4] = Solubility of therapeutic peptides; assay type: physicochemical; details: DMEM/10% FBS
Description: In this study, the rational design was tested for HD. Several bipartite therapeutic peptides containing 8 consecutive arginines (8R) attached to a stretch of consecutive glutamines (polyQ) were synthesized and their biological activity of decreasing the aggregation propensity of the mHtt protein was investigated. The length of the polyQ of these bipartite peptides was 5 (8R5Q), 10 (8R10Q), 15 (8R15Q) or 20 (8R20Q) (Table 2).

109QmHtt aggregates = assay: Co-localization of TAMRA-labeled peptide with 109QmHtt aggregates in Neuro2a cells; assay type: cell-based; details: Neuro2a cells expressing 109QmHtt
Description: FIG. 3. Diagrams showing the co-localization of tested bipartite peptides with the 109QmHtt aggregates. Panel A: Structure of TAMRA-labeled 8R10Q used in this study. Panel B: Epifluorescence micrographs of Neuro2a cells expressing 109QmHtt treated with TAMRA-8R10Q (8R10Q) at various time points. Note the co-localization of 8R10Q and 109QmHttGFP aggregates (GFP) from 8-24 hours (arrows). Scale bar: 10 μm. Panel C: TIRF micrographs of the Neuro2a expressing 109QmHtt treated with water or peptides as indicated at various time points. Note the decrease in aggregate size in 8R10Q and 8R15Q-treated cells. Panel D: Quantitation of the size of individual aggregates in Neuro2a at 8 hours (left) and 24 hours (right) after peptide treatment. […] Panel E: Quantitation of the number of aggregates in 20 Neuro2a cells at 12 hours (left) and 24 hours (right) after peptide treatment. Both the 8R10Q and 8R15Q increased the number of aggregates. Statistics performed with one way ANOVA. **p<0.01; ***p<0.001.
The ability of 8R10Q to bind to the 109QmHtt was examined by determining its co-localization with the 109QmHtt aggregates. The 8R10Q peptide was labeled with carboxytetramethylrhodamine (TAMRA) dye (FIG. 3, panel A), and added into Neuro2a cells expressing 25QHtt or 109QmHtt.

109QmHtt aggregates, sequence (P42858 with tags, fused parts or gaps limits assumed): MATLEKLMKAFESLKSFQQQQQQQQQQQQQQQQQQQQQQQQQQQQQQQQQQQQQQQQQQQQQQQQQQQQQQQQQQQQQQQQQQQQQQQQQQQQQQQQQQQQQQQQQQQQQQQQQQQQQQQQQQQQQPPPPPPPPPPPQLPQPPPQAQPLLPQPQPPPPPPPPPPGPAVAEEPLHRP

Row | Substance | escape latency / learning to find hidden platform (APP×PS1 transgenic mice [1]; Tg mice 8 months of age, intranasal) | time spent in the target quadrant (probe test) (APP×PS1 transgenic mice [1]; Tg mice) | learning curve of finding the hidden platform (APP×PS1 transgenic mice [1]; wild-type mice) | number of plaques (APP×PS1 transgenic mice [2]; cortex and hippocampus, 8 month-old) | percentage of the plaque areas (APP×PS1 transgenic mice [2]; cortex and hippocampus) | total area of amyloid plaques (APP×PS1 transgenic mice [2]; cortex and hippocampus) | average size of individual plaques (APP×PS1 transgenic mice [2]) | level of IL-1β (APP×PS1 transgenic mice [3]) | level of IL-6 (APP×PS1 transgenic mice [3]) | Solubility (DMEM/10% FBS) [4] | co-localization with 109QmHtt aggregates (109QmHtt aggregates)
1 | RRRRRRRRGSNKGAIIGLM-PEI (not fully specified; PEI conjugate) [R8-Aβ(25-35)-PEI] | significant shortening of the latency | increased the time of Tg mice in the target quadrant | no clear difference in the learning curve | significantly reduced | significantly decreased | correspondingly decreased | failed to reach statistical significance | effectively decreased | effectively decreased | – | –
2 | TAMRA-NH-(R)8-W-D-(Q)10-CONH2 ({TAMRA}-RRRRRRRRWDQQQQQQQQQQ-NH2) [TAMRA-8R10Q] | – | – | – | – | – | – | – | – | – | Soluble | co-localized with the aggregates
